{
  "source": "patent US10239842B2",
  "about": "“Hydrosoluble compounds derived from benzimidazole used in treating fasciolosis” (UNIVERSIDAD NACIONAL AUTONOMA DE MEXICO, priority 2014, dated 2019)",
  "key": {"Fasciola hepatica [1]": {"tested_on": "Fasciola hepatica", "conditions": "cited from earlier work; for Efficacy against Fasciola hepatica, first fasciola age span printed for the drug / Efficacy against Fasciola hepatica, second fasciola age span for the drug: sheep, recommended dose rates, span not recoverable from the grid; for Efficacy against Fasciola hepatica, first fasciola age span printed for the drug: first (younger) age span in weeks; for Efficacy against Fasciola hepatica, second fasciola age span for the drug: second (older) age span in weeks"}, "[2]": {"assay": "Stability studies in aqueous solution by UV-HPLC", "format": "physicochemical", "conditions": ">95% by UV-HPLC determined at room temperature", "method": "Solutions were kept at room temperature (25° C.) for 26 hours (24 hour for TCBZ), and 5 mL of the samples were later diluted in 10 mL of water and analyzed by UV-HPLC."}, "[3]": {"assay": "Studies of aqueous solubility (method reported by Yalkowski)", "format": "physicochemical", "conditions": "determined at 25° C.", "method": "Sample was stirred at room temperature for 48 hours until reaching equilibrium between the two phases. The tube was then centrifuged at 4500 rpm for minutes at room temperature. […] Its concentration was then determined in a spectrophotometer at 350 nm."}, "[4]": {"tested_on": "mature and juvenile fasciola", "conditions": "dose of 15 mg/Kg; previous studies; cited from earlier work"}, "Fasciola hepatica [5]": {"tested_on": "Fasciola hepatica", "assay": "In-vitro evaluation of fasciolicide efficacy on artificially excysted fasciola", "format": "cell-based", "method": "In order to evaluate the anti-fasciola effect of compounds 5 and 6 as mixture of regioisomers, artificially excysted fasciola were used (approximately six hours after excystment), according to the disclosure by Ibarra and Jenkins, (1984). Briefly, recently excysted fasciola are suspended in 90 ml of Roswell Park Memorial Institute (RPMI)-1640® culture media plus 90 ml of bovine serum and 1.5 ml of antibiotics (Penicillin and Streptomycin) at a density of 100 individuals/ml.\n5 mg of experimental compound was used and placed in a universal bottle (30 ml capacity), to which 0.1 ml of methanol was added to dissolve the compound. From this point, required dilutions are carried out with distilled water to prepare concentrations of 50 and 10 mg/l.\n24-well NUNC® culture dishes were used and 1.6 ml of culture medium (RPMI/bovine serum), 0.2 ml of the compound concentration to be tested and 0.2 ml of RPMI containing 10 fasciola per well are placed into each well. Control wells which contain fasciola without compound are used per each dish, further including a control group with a reference drug (Triclabendazole-Fasinex®-Novartis). Each concentration is carried out three times. Each sample remains under incubation at 37° C. during 4 days under a 5% CO2 atmosphere.\nFasciola under study are examined at 24, 48 and 72 hours post-exposure to compound through an inverted microscope at 40×. Extract activity is measured by comparing survival of treated fasciola with control group fasciola. All procedures are carried out under aseptic conditions in a laminar flow hood.\nEfficacy is measured by using the following formula (Abbott, 2004): % Efficacy=[Fasciola in control group−Fasciola in treated group]/[[…]]\nThe extract is considered to have fasciolicide activity when showing an in vitro efficacy higher than 80%. (Ibarra & Jenkins, 1984; Elango & Rahuman, 2011; Ibarra et al, 2013)."}, "[6]": {"conditions": "TCBZ solubility reported in literature; cited from earlier work"}, "[7]": {"conditions": "cited from earlier work"}, "[8]": {"conditions": "24 h, read-out: EFFICACY (%) 1st Test, mortality percentage"}, "[9]": {"conditions": "24 h, read-out: EFFICACY (%) 2nd Test, mortality percentage"}, "[10]": {"conditions": "24 h, read-out: EFFICACY (%) 3rd Test, mortality percentage"}, "[11]": {"conditions": "24 h, read-out: EFFICACY (%) Average, mortality percentage"}, "[12]": {"conditions": "48 h, read-out: EFFICACY (%) 1st Test, mortality percentage"}, "[13]": {"conditions": "48 h, read-out: EFFICACY (%) 2nd Test, mortality percentage"}, "[14]": {"conditions": "48 h, read-out: EFFICACY (%) 3rd Test, mortality percentage"}, "[15]": {"conditions": "48 h, read-out: EFFICACY (%) Average, mortality percentage"}, "[16]": {"conditions": "72 h, read-out: EFFICACY (%) 1st Test, mortality percentage"}, "[17]": {"conditions": "72 h, read-out: EFFICACY (%) 2nd Test, mortality percentage"}, "[18]": {"conditions": "72 h, read-out: EFFICACY (%) 3rd Test, mortality percentage"}, "[19]": {"conditions": "72 h, read-out: EFFICACY (%) Average, mortality percentage"}},
  "note": "Like-named read-outs stand apart in the source and are kept apart here.",
  "data": [
    {"smiles": "CCCSc1ccc2nc(NC(=O)OC)[nH]c2c1", "note": "[Albendazole]", "values": [
      {"measurement": "efficacy over Fasciola hepatica", "setting": "Fasciola hepatica [1]; fasciola age weeks 10-11", "result": "50-70%"},
      {"measurement": "efficacy over Fasciola hepatica", "setting": "Fasciola hepatica [1]; fasciola age weeks 12-14", "result": "80-90%"}
    ]},
    {"smiles": "CSc1nc2cc(Oc3cccc4ccccc34)c(Cl)cc2[nH]1", "note": "[Alpha compound, 5-Chloro-2-(methylthio)-6-(1-naphthyloxy)-1H-benzimidazole]", "values": [
      {"measurement": "Aqueous solubility (h) pH 7 [chemical stability]", "setting": "[2]", "result": ">26", "unit": "h"},
      {"measurement": "Aqueous solubility pH 7", "setting": "[3]", "result": "2.6×10^−4 mg/mL"},
      {"measurement": "efficacy against mature and juvenile fasciola", "setting": "[4]", "result": 86.9, "unit": "%"}
    ]},
    {"smiles": "Nc1cc(C(Cl)=C(Cl)Cl)c(S(N)(=O)=O)cc1S(N)(=O)=O", "note": "[Closuron]", "values": [
      {"measurement": "Efficacy against Fasciola hepatica, first fasciola age span printed for the drug", "setting": "Fasciola hepatica [1]", "result": "90-99%"}
    ]},
    {"smiles": "CC(=O)Nc1ccc(OCCOCCOc2ccc(NC(C)=O)cc2)cc1", "note": "[Diamphenetide]", "values": [
      {"measurement": "efficacy in adult fasciola", "setting": "Fasciola hepatica [1]; 7-week adult fasciola", "result": "not being effective"},
      {"measurement": "Efficacy against Fasciola hepatica, first fasciola age span printed for the drug", "setting": "Fasciola hepatica [1]", "result": "91-100%"},
      {"measurement": "Efficacy against Fasciola hepatica, second fasciola age span for the drug", "setting": "Fasciola hepatica [1]", "result": "50-80%"}
    ]},
    {"smiles": "O=C(Nc1ccc(Oc2ccc(Cl)cc2)c(Cl)c1)c1cc(I)cc(I)c1O", "note": "[Rafoxanide]", "values": [
      {"measurement": "Efficacy against Fasciola hepatica, second fasciola age span for the drug", "setting": "Fasciola hepatica [1]", "result": "91-99%"}
    ]},
    {"smiles": "CSc1nc2cc(Oc3cccc(Cl)c3Cl)c(Cl)cc2[nH]1", "note": "[Triclabendazole]", "values": [
      {"measurement": "Aqueous solubility (h) pH 7 [chemical stability]", "setting": "[2]", "result": ">24", "unit": "h"},
      {"measurement": "mortality at 10 µg/mL", "setting": "Fasciola hepatica [5]; [8]", "result": 100, "unit": "%"},
      {"measurement": "mortality at 50 µg/mL", "setting": "Fasciola hepatica [5]; [8]", "result": 100, "unit": "%"},
      {"measurement": "mortality at 10 µg/mL", "setting": "Fasciola hepatica [5]; [9]", "result": 100, "unit": "%"},
      {"measurement": "mortality at 50 µg/mL", "setting": "Fasciola hepatica [5]; [9]", "result": 100, "unit": "%"},
      {"measurement": "mortality at 10 µg/mL", "setting": "Fasciola hepatica [5]; [10]", "result": 100, "unit": "%"},
      {"measurement": "mortality at 50 µg/mL", "setting": "Fasciola hepatica [5]; [10]", "result": 100, "unit": "%"},
      {"measurement": "mortality at 10 µg/mL", "setting": "Fasciola hepatica [5]; [11]", "result": 100, "unit": "%"},
      {"measurement": "mortality at 50 µg/mL", "setting": "Fasciola hepatica [5]; [11]", "result": 100, "unit": "%"},
      {"measurement": "mortality at 10 µg/mL", "setting": "Fasciola hepatica [5]; [12]", "result": 100, "unit": "%"},
      {"measurement": "mortality at 50 µg/mL", "setting": "Fasciola hepatica [5]; [12]", "result": 100, "unit": "%"},
      {"measurement": "mortality at 10 µg/mL", "setting": "Fasciola hepatica [5]; [13]", "result": 100, "unit": "%"},
      {"measurement": "mortality at 50 µg/mL", "setting": "Fasciola hepatica [5]; [13]", "result": 100, "unit": "%"},
      {"measurement": "mortality at 10 µg/mL", "setting": "Fasciola hepatica [5]; [14]", "result": 100, "unit": "%"},
      {"measurement": "mortality at 50 µg/mL", "setting": "Fasciola hepatica [5]; [14]", "result": 100, "unit": "%"},
      {"measurement": "mortality at 10 µg/mL", "setting": "Fasciola hepatica [5]; [15]", "result": 100, "unit": "%"},
      {"measurement": "mortality at 50 µg/mL", "setting": "Fasciola hepatica [5]; [15]", "result": 100, "unit": "%"},
      {"measurement": "mortality at 10 µg/mL", "setting": "Fasciola hepatica [5]; [16]", "result": 100, "unit": "%"},
      {"measurement": "mortality at 50 µg/mL", "setting": "Fasciola hepatica [5]; [16]", "result": 100, "unit": "%"},
      {"measurement": "mortality at 10 µg/mL", "setting": "Fasciola hepatica [5]; [17]", "result": 100, "unit": "%"},
      {"measurement": "mortality at 50 µg/mL", "setting": "Fasciola hepatica [5]; [17]", "result": 100, "unit": "%"},
      {"measurement": "mortality at 10 µg/mL", "setting": "Fasciola hepatica [5]; [18]", "result": 100, "unit": "%"},
      {"measurement": "mortality at 50 µg/mL", "setting": "Fasciola hepatica [5]; [18]", "result": 100, "unit": "%"},
      {"measurement": "mortality at 10 µg/mL", "setting": "Fasciola hepatica [5]; [19]", "result": 100, "unit": "%"},
      {"measurement": "mortality at 50 µg/mL", "setting": "Fasciola hepatica [5]; [19]", "result": 100, "unit": "%"},
      {"measurement": "Aqueous solubility pH 7", "setting": "[6]", "result": "2.0 × 10^−4 mg/mL"},
      {"measurement": "absorbed fraction of administered dose", "setting": "[7]; orally administered", "result": 5, "unit": "%"},
      {"measurement": "plasma levels of triclabendazole as sulfoxide", "setting": "[7]; share of dose", "result": 5, "unit": "%"},
      {"measurement": "removed in feces", "setting": "[7]; share of dose", "result": 92, "unit": "%"},
      {"measurement": "removed in milk", "setting": "[7]; share of dose", "result": 1, "unit": "%"},
      {"measurement": "removed in urine", "setting": "[7]; share of dose", "result": 2, "unit": "%"},
      {"measurement": "Efficacy against Fasciola hepatica, second fasciola age span for the drug", "setting": "Fasciola hepatica [1]", "result": "91-99%"}
    ]}
  ]
}
